“And” between values parts separate entries of the source, which are not always exact repeats. Equal entries are not always repeated. Where two headings read alike, the source gives them in different places.
Tests used:
hRBCs = assay type: cell-based, human; details: hemolysis in PBS, 4% hRBC suspension mixed 1:1, 37 °C, 1 h, OD450, sigmoidal fit; ± SD, at least three replicates; read-out: EC50, hRBC (50% hemolysis)
Method: hRBCs were purchased from Rockland Immunochemical Inc. Hemolytic assays were performed in 96-well plates in an environment of PBS, as previously described.[13],[23] Amphiphiles were half diluted serially at first, resulting in 100 μL of solution in each well, and mixed subsequently with 100 μL of 4% hRBC suspension. Wells filled by PBS mixed with hRBC were employed as positive controls, while hRBCs with added 0.1% Triton X-100 were negative controls. After incubating at 37 °C for 1 h, the plates were centrifuged at 1000 times gravity for 5 min. The supernatants in each well, which contained the released hemoglobin, were transferred to another plate, and their optical density at 450 nm (OD450) was measured using an absorbance microplate reader. The percentage of hemolysis H for each sample at a certain concentration c was obtained by Hc = (OD450,c – OD450,positive control)/(OD450,negative control – OD450,positive control) × 100%. Figures for percentage leakage against concentration for each sample were plotted to determine the approximate range of 50% hemolysis, and the relevant concentration was the half maximal effective concentration (EC50) of the sample. Each experiment was repeated at least three times with each containing three replicates. The dose–response curves were again obtained by applying sigmoidal functional fits to obtain the EC50 values.

[1] = Fluorescein (CF) leakage from SUVs; details: for threshold concentration of fast leakage increase, PC/PG SUVs: end of the low leakage induction range; for concentration for 20% leakage, PC/Chol. vesicles / concentration for 20% leakage, PC/PG vesicles / concentration for 100% leakage, PC/Chol. vesicles / concentration for 100% leakage, PC/PG vesicles / concentration for minimal leakage, PC/Chol. vesicles / concentration for minimal leakage, PC/PG vesicles / EC50: CF-SUVs 0.25 mg/mL in TBS pH 7.2, fluorescence ex 480/em 520 nm, read from Figure 5
Method: Lipid SUVs with single or multiple components were used to model different biomembranes. In this work, two lipid mixtures with different surface charges were used to mimic bacterial inner membranes with the molar ratio of POPC/POPG of 7:3 and mammalian cytoplasmic cell membranes with a molar ratio of POPC/cholesterol of 1:1. Lipids (or cholesterol) were dissolved and mixed in chloroform, and then, the solvent was removed via evaporation and lyophilization. Dry lipids were dissolved in Tris buffered saline (TBS, containing 10 mM Tris-HCl and 154 mM NaCl, with a final pH of 7.2) and were fully dispersed via sonication. After five freeze/thaw loops of the lipid solution, SUVs were prepared by extruding 31 times using an Avanti Polar Lipids mini extruder. SUV solutions were diluted to 0.5 mg/ml for further use.
Concentration effects of the binding of amphiphiles to lipid SUVs were examined by means of fluorescein leakage. 5(6)-Carboxyfluorescein (CF)-entrapped SUVs (CF-SUVs) were prepared as described previously,[26] except that dried lipids were dissolved into 40 mM TBS solution of CF before the freeze/thaw loop. After extrusion, CF-SUVs were separated from unentrapped fluorescein molecules using a Sephadex G50 chromatography column. Amphiphile solutions of various concentrations were then blended in a 1:1 ratio with CF-SUVs, giving a mixture of amphiphiles of the desired concentration and CF-SUVs of concentration 0.25 mg/mL. A Thermo Scientific Varioskan LUX was employed to determine the amount of released CF in each sample by measuring their emission intensity I520, with an excitation wavelength of 480 nm and an emission wavelength of 520 nm. CF-SUVs alone and with added 0.2% Triton-X were measured as positive and negative controls (I+ and I–), respectively. The percentage of leakage L for each sample was calculated using Ln = (In,520 – I+)/(I– – I+) × 100%.

[2] = read-out: concentration for 50% leakage, PC/Chol. vesicles
[3] = read-out: concentration for 50% leakage, PC/PG vesicles

Structure (SMILES): CCCCCCCCCCCC[N+](C)(C)C.[Br-] [C12TAB, dodecyltrimethylammonium bromide]
- EC50 (hRBCs): 610 ± 30 µM
- concentration above which fast leakage was induced, PC/chol SUVs ([1]; CF leakage, end of the low leakage induction period): ~70 µM
- threshold concentration of fast leakage increase, PC/PG SUVs ([1]; CF leakage): 75 µM
- concentration for 20% leakage, PC/Chol. vesicles [1]: 500 µM
- concentration for 20% leakage, PC/PG vesicles [1]: 125 µM
- concentration for 100% leakage, PC/Chol. vesicles [1]: >2000 µM
- concentration for 100% leakage, PC/PG vesicles [1]: above 1000 μM and 1000 μM
- concentration for minimal leakage, PC/Chol. vesicles [1]: 10 µM
- concentration for minimal leakage, PC/PG vesicles [1]: around 16 μM and 75 μM
- EC50 [1, 2]: 2000 µM
- EC50 [1, 3]: 256 µM
- leakage, PC/PG SUVs ([1]; at 256 μM): 60%
- leakage, PC/PG SUVs ([1]; from 16 to 75 μM): less than 10%

Structure (SMILES): CCCCCCCCCCCCCC[N+](C)(C)C.[Br-] [C14TAB, tetradecyltrimethylammonium bromide]
- EC50 (hRBCs): 98 ± 8 µM
- threshold concentration of fast leakage increase, PC/PG SUVs ([1]; CF leakage): 16 µM
- concentration for 20% leakage, PC/Chol. vesicles [1]: 10 µM
- concentration for 20% leakage, PC/PG vesicles [1]: 30 µM
- concentration for 100% leakage, PC/Chol. vesicles [1]: >500 µM
- concentration for 100% leakage, PC/PG vesicles [1]: 500 µM
- concentration for minimal leakage, PC/Chol. vesicles [1]: around 4 μM
- concentration for minimal leakage, PC/PG vesicles [1]: 4 µM
- EC50 [1, 2]: 100 µM
- EC50 [1, 3]: 50 µM
- maximum leakage, PC/chol SUVs ([1]; at 100 μM and above): 50%

From publication PMC9161444, “In-Membrane Nanostructuring of Cationic Amphiphiles Affects Their Antimicrobial Efficacy and Cytotoxicity: A Comparison Study between a De Novo Antimicrobial Lipopeptide and Traditional Biocides” (Langmuir, 2022)
